The test system of this experiment is female NMRI mice. The experiment in a line: Anorectic action: cumulative evaporated milk consumption after 24 h feed removal. The experiment is classed as in vivo. As to conditions: versus control animals. The procedure: The anorectic action was tested on female NMRI mice. After removal of feed for 24 hours, the preparation to be tested was administered intraperitoneally (ip) or by gavage (po). The animals were housed singly and, with free access to drinking water, they were offered evaporated milk 30 minutes after administration of the preparation. The consumption of evaporated milk was determined and the general behavior of the animals was monitored every half an hour for 7 hours. The measured milk consumption was compared to that of vehicle-treated control animals.

Take `CSC1Cc2cc(Cl)ccc2C1=O` (stereo not drawn) [Example 1, 5-Chloro-2-methylsulfanylindan-1-one]: the “Reduction in cumulative milk consumption as % of the control” value (from here on “Reduction … as % of the control”) (10 mg/kg ip) was found to be 64%.

Consider `CS(=O)(=O)C1Cc2cc(Cl)ccc2C1=O` (stereo not drawn) [Example 2, 5-Chloro-2-methanesulfonylindan-1-one], for which the “Reduction … as % of the control” value (20 mg/kg ip) is on record as 70%. In the case of `C[S+]([O-])C1Cc2cc(Cl)ccc2C1=O` (stereo not drawn) [Example 9, 5-chloro-2-methanesulfinylindan-1-one], the “Reduction … as % of the control” value (50 mg/kg po) came out at 73%.

These data come from patent US6762326B2, “C2-substituted idan-1-ones and their derivatives, processes for their preparation and their use as pharmaceuticals” (Aventis Pharma Deutschland GmbH, priority 2001, dated 2004).
